{"source": "patent US20220062291A1", "about": "“COMPOSITIONS AND METHODS OF TREATING CANCERS BY ADMINISTERING A PHENOTHIAZINE-RELATED DRUG THAT ACTIVATES PROTEIN PHOSPHATASE 2A (PP2A) WITH REDUCED INHIBITORY ACTIVITY TARGETED TO THE DOPAMINE D2 RECEPTOR AND ACCOMPANYING TOXICITY” (DANA-FARBER CANCER INSTITUTE, INC., priority 2018, published 2022)", "key": {"KOPT-K1 cells": {"system": "KOPT-K1 cells", "assay": "Cell cycle status by PI flow cytometry", "assay_type": "cell-based, human", "conditions": "24 hours", "description": "Relative DNA content of cells in each of the samples was determined by measuring PI (propidium iodide) staining using flow cytometry. The results are illustrated in FIG. 31A-FIG. 31B.\nRelative DNA content of cells in each of the samples was determined as described above."}, "[1]": {"assay": "Movement disorder in free-swimming zebrafish embryos", "assay_type": "in vivo", "conditions": "five days", "text": "Note that the embryos were not anesthetized. Scale bar: 0.1 mm."}, "[2]": {"system": "p-ERK and p-AKT in KOPT-K1 cells", "assay": "Western blot of p-ERK and p-AKT", "assay_type": "cell-based, human", "conditions": "three hours", "text": "Levels of the PP2A endogenous substrates p-ERK and p-AKT in KOPT-K1 cells were examined because of the importance of the MAPK/ERK and PI3K/AKT/mTOR pathways in cancer cells."}, "[3]": {"system": "KOPT-K1 cells with PP2A subunit inactivation", "assay": "Drug sensitivity of KOPT-K1 sublines with CRISPR-Cas9 PP2A subunit knockout", "assay_type": "cell-based, human", "conditions": "72 hours", "description": "Two gRNAs with different target sequences were designed for each subunit (#1 and #2). Control gRNAs target luciferase gene. […] Data are presented as means±s.d. (n=3-5, biological replicates). ***P<0.001 by Student's t-test (FIG. 3A).\nSMAP sensitivity in KOPT-K1 cells was measured after PP2A subunit inactivation. Only each subunit of PP2A was knocked out by CRISPR-Cas9 with unique gRNAs. […] Two gRNAs with different target sequences were designed for each subunit (#1 and #2). Control gRNAs target luciferase gene. Data are presented as means±s.d. (n=3-5, biological replicates). ***P<0.001 by Student's t-test (FIG. 3B).\nTo identify the subunits of PP2A that are essential for the antitumor activity of iPAP1, CRISPR-Cas9 was used to establish a series of sublines of KOPT-K1 T-ALL cells, each lacking one of the 19 specific PP2A subunits (FIG.1A-FIG. 2), and to examine their sensitivity to iPAP1-induced growth inhibition.\nWith this panel of PP2A subunit knockout cells in hand, we analyzed the PP2A subunits required for growth suppression by SMAPs, another class of allosteric activators of PP2A (Gutierrez et al., J. Clin. Invest. 124:644-655 (2014); Sangodkar et al., J. Clin. Invest. 127:2081-2090 (2017)). […] Both the PPP2R5E and PPP2R2A regulatory subunits of PP2A were among the most highly expressed in a series of 16 different T-ALL cell lines (FIG. 5A). Thus, the assembly of structurally different heterotrimeric PP2A complexes induced with either iPAP1 or SMAP cannot be attributed to imbalances in cellular expression levels of individual PP2A subunits, but likely stems from differences in the allosteric alterations of the A subunit protein resulting from the binding of these two classes of small molecules, which have different chemical structures."}, "[4]": {"conditions": "female, C57BL/6, mouse, in vivo, po, 1 week", "quoted_text": "PPZ and iPAP1 were each given per orally to eight-week-old female C57BL/6 mice every 24 hours (n=3 for each cohort). The mice were monitored for four recognized types of dopamine receptor D2 mediated toxicity, namely: i) general activity; ii) reactivity to touch; iii) fear/startle to sound; and iv) tone of abdominal muscle. Behavioral monitoring was done at 15 minutes, 1 hour, 4 hours and 24 hours after each treatment. PPZ and iPAP1 were each administered at 0, 2.5, 5, 10, 20 and 40 mg/kg body weight/dose, and iPAP1 was also administered at 80 mg/kg body weight/dose."}, "[5]": {"system": "274 cancer cell lines from 39 distinct types of human cancers", "assay": "PRISM analysis of cell viability", "assay_type": "cell-based", "conditions": "5 μM, 5 days", "description": "Many other human cell lines from hematologic malignancies and solid tumors were as sensitive as the most sensitive T-ALL cell lines to treatment with iPAP1. Cell lines with a relative viability below the dashed line at 0.5 have an IC50 value for iPAP1 below 5 μM."}, "[6]": {"system": "PLK1, PLK4, AURKA, KIF11, SASS6, RCC1, HAUS8, TPX2, PCNT, CENPJ and TUBG1 in KOPT-K1 cells", "assay": "Relative mRNA expression of spindle monopolarity genes", "assay_type": "cell-based, human", "conditions": "1 μM, 6 hours", "description": "The relative mRNA expression of genes whose inducible CRISPR-cas9 knockout causes cell cycle arrest in prometaphase yielding spindle monopolarity (PLK1, PLK4, AURKA, KIF11, SASS6, RCC1, HAUS8, TPX2, PCNT, CENPJ and TUBG1) (McKinley et al., Dev. Cell 40:405-420 (2017)) was evaluated in […] cell lines. […] The results are illustrated in FIG. 33."}, "[7]": {"assay": "Peripheral blood platelet counts", "assay_type": "in vivo, C57BL/6J mice", "conditions": "80 mg/kg/day intraperitoneally, seven consecutive days", "description": "The peripheral blood platelet counts in C57BL/6J mice treated with either by DMSO or iPAP1 at 80 mg/kg/day intraperitoneally for seven consecutive days, were measured. […] Other blood cell counts were unchanged in treated compared to control mice. iPAP1 treatment of mice increased the platelet count, due to effects of the compound on endoreduplication of megakaryocytes."}, "[8]": {"system": "KOPT-K1, SUPT-13 and RPMI-8402 cells", "assay": "Dose-response viability in three T-ALL cell lines, 72 hours", "assay_type": "cell-based, human", "description": "Viable cells are shown on the Y axis as a percent of the DMSO control cells. Data are presented as means±s.d. (n=3). Data are presented as means±s.d. […] The IC50 for iPAP1 is 200 to 400 nM for these cell lines.\n(Perrotti and Neviani, Cancer Metastasis Rev. 27(2):159-68 (2008); Sangodkar et al., J. Clin. Invest. 127(6):2081-2090 ([…])). […] Data are presented as means±s.d."}}, "data": [{"smiles": "OCCN1CCN(CCCN2c3ccccc3Sc3ccc(Cl)cc32)CC1", "note": "[PPZ, perphenazine, reference compound]", "values": [{"measurement": "cell cycle status", "setting": "KOPT-K1 cells; 10 μM and 20 μM", "value": "induced significant G2/M phase arrest"}, {"measurement": "swimming behaviour / movement disorder", "setting": "[1]; 5 μM", "value": "exhibited movement disorders and swam upside down or on their sides"}, {"measurement": "phosphorylation of ERK and AKT", "setting": "[2]", "value": "significantly reduced"}, {"measurement": "PP2A subunits whose knockout gives resistance", "setting": "[3]; 5 μM", "value": "resistance to PPZ treatment only when the specific subunits PPP2R1A, PPP2CA or PPP2R5E were knocked out"}, {"measurement": "dose showing neurological toxicity", "setting": "[4]", "value": "≥ 5", "unit": "mg/kg body weight/dose"}]}, {"smiles": "COc1ccc(C(=O)N2c3ccccc3Sc3ccc(Cl)cc32)cc1", "note": "[iPAP1]", "values": [{"measurement": "cell killing compared with PPZ in every cell line", "setting": "[5]", "value": "more active in cell killing than was PPZ"}, {"measurement": "cell cycle status", "setting": "KOPT-K1 cells; 1 μM and 2 μM", "value": "induced significant G2/M phase arrest"}, {"measurement": "swimming behaviour / movement disorder", "setting": "[1]; 2 μM", "value": "swam upright"}, {"measurement": "PP2A subunits whose knockout gives resistance", "setting": "[3]; 0.5 μM", "value": "resistance to iPAP1 treatment only when the PPP2R1A, PPP2CA or PPP2R5E subunits were disrupted"}, {"measurement": "relative mRNA expression", "setting": "[6]", "value": "significantly down-regulated the expression levels of most of these genes"}, {"measurement": "other blood cell counts", "setting": "[7]", "value": "unchanged"}, {"measurement": "peripheral blood platelet counts", "setting": "[7]", "value": "significantly increased the platelet counts"}, {"measurement": "IC50", "setting": "[8]; Homo sapiens, KOPT-K1, SUPT-13 and RPMI-8402, 72 hours", "value": "0.2 to 0.4", "unit": "µM"}, {"measurement": "more active than SMAP against T-ALL cells based on the IC50", "setting": "[8]; SUPT-13, KOPT-K1 and RPMI-8402", "value": "~5", "unit": "fold"}]}]}
